{
  "source": "patent US10026660B2",
  "about": "“Method of etching the back of a wafer to expose TSVs” (priority 2014, dated 2018)",
  "tested_on": "rat",
  "experiment": "Rat dermal exposure toxicity (LD50)",
  "conditions": "rat dermal exposure (skin contact)",
  "source_text": "LD50 is the dosage for 50% or more of test rats to […] after skin contact with the test chemicals in a given time. Generally, the higher the LD50, the less toxic the chemical.",
  "data": [
    {"smiles": "C[N+](C)(C)C.[OH-]", "note": "[TMAH, Tetramethylammonium hydroxide]", "values": [
      {"measurement": "LD50", "result": 157, "unit": "mg/kg"}
    ]}
  ]
}
